Experimental data reported in patent US4994485A, “Thio compounds having fungicidal activity” (Duphar International Research B.V., priority 1986, dated 1991).

How the values were obtained:
Fusarium culmorum [1] = experiment: Protection of seedlings against plant pathogenic seed fungus by seed treatment (wheat); assay type: in vivo; conditions: wheat seed infested with Fusarium culmorum; 3 g composition (10% by weight in kaolin) per kg of seed; after three weeks, 8°-12° C.; untreated 67
Protocol: Test with respect to the protection of seedlings against a plant pathogenic seed fungus, namely Fusarium culmorum, by means of a seed treatment.
Wheat seed, infested with Fusarium culmorum, is treated with the substance to be tested in the form of a composi tion in a quantity of 3 g per kg of seed. The composition is obtained by pulverising the substance to be tested and then intimately mixing with kaolin in a concentration of 10% by weight. The seed thus treated is sown in a tray containing soil which is placed in a Wisconsin tank with a bottom temperature of 8°-12° C. After three weeks the number of emerged and healthy plants is determined. The emergence of healthy plants from untreated seed serves as control. For comparison, the known substances 2-methylsulphinyl-4-methyl-5-nitrothiazole (a), 2-methylsulphinyl-3-nitrothiophene (b) and 2-ethylsulphinyl-3-nitro-5-acetylthiophene (c) mentioned hereinbefore are also tested. In the examples, the numbers of the compounds refer to the specification.

Pythium spp. = experiment: Protection of seedlings against plant-pathogenic soil fungus by seed treatment (beet); assay type: in vivo; conditions: after 3 weeks, 18°-22° C., untreated 72
Protocol: Test with respect to the protection of seedlings against a plant-pathogenicsoil fungus, namely Pythium spp., by means of a seed treatment.
The compounds to be tested are processed to compositions by pulverising them and then mixing them intimately with kaolin in the desired concentration (see Table B). Beet seed is treated with these compositions in a quantity of 6 g of composition per kg of seed and then sown in trays with soil which was seriously infested with Pythium spp. After 3 weeks in a glass-house at 18°-22° C. and a relative humidity of 70-100%, the percentage of non-emerged and diseased seedlings (damping-off) is determined. The results are recorded in Table B. For comparison, the known substance 2-methylsulphinyl-4-methyl-5-nitrothiazole(a) is also tested.

Pythium splendens = experiment: In vitro test on activity against Pythium splendens; assay type: cell-based; conditions: Globisporangium splendens, read-out: growth inhibition of the fungus
Leptosphaeria nodorum = experiment: In vitro test on activity against Leptosphaeria nodorum; assay type: cell-based; conditions: Parastagonospora nodorum, read-out: growth inhibition of the fungus
Protocol: (§1) The compound to be tested is processed in a culture medium consisting of 1% by weight of glucose, 0.2% by weight of a yeast extract (marmite), 0.5% by weight of a protein (pepton), 2.5% by weight of agar-agar, and 95.8% by weight of water, in petri dishes in concentrations of 3 and 10 ppm. The petri dishes are inoculated with the plant-pathogenic fungus Pyrenophora graminea and then kept at a temperature of 20° C. After 48 hours the growth-inhibiting activity of the compounds is determined visually. For comparison, the known substance (b) (see EXAMPLE XV) is also tested.
Compounds according to the invention are tested on i Leptosphaeria nodorum in the same manner as described in EXAMPLE XIX.

Pyrenophora graminea = experiment: In vitro test on activity against Pyrenophora graminea; assay type: cell-based; conditions: 48 hours, 20° C., read-out: % growth inhibition of the fungus
Protocol: In vitro test on activity against Pyrenophora graminea.
as §1

Fusarium culmorum [2] = experiment: In vitro test on activity against Fusarium culmorum; assay type: cell-based; conditions: read-out: growth inhibition of the fungus
Rhizoctonia solani = experiment: In vitro test on activity against Rhizoctonia solani; assay type: cell-based; conditions: read-out: growth inhibition of the fungus
Protocol: as §1, with “in petri dishes in concentrations of 3 and 10 ppm.” left out
Compounds according to the invention are tested on Rhizoctonia solani in the same manner as described in EXAMPLE XIX.

[3] = 600 mg of active substance per kg of seed
[4] = 1200 mg of active substance per kg of seed

Row | Compound | Percentage of emerged, healthy plants (Fusarium culmorum [1]) [%] | percentage damping-off (Pythium spp.; [3]) [%] | percentage damping-off (Pythium spp.; [4]) [%] | inhibition at 10 ppm (Pythium splendens) [%] | inhibition at 30 ppm (Leptosphaeria nodorum) [%] | inhibition at 3 ppm (Pyrenophora graminea) [%] | inhibition at 10 ppm (Pyrenophora graminea) [%] | inhibition at 30 ppm (Fusarium culmorum [2]) [%] | inhibition at 30 ppm (Rhizoctonia solani) [%]
1 | CC(=O)c1cc(C#N)c([S+](C)[O-])s1 (stereo not drawn) [(1), 2-methylsulphinyl-3-cyano-5-acetylthiophene] | 91 | 8 | 7 | ≥ 95 | – | – | – | – | –
2 | CC[S+]([O-])c1sc(C(C)=O)c(Cl)c1C#N (stereo not drawn) [(5), 2-ethylsulphinyl-3-cyano-4-chloro-5-acetylthiophene] | 85 | 21 | 17 | ≥ 95 | ≥ 85 | 54 | 89 | ≥ 75 | –
3 | CC(=O)c1sc([S+](C)[O-])c(C#N)c1-c1ccc(Cl)cc1 (stereo not drawn) [(6), 2-methylsulphinyl 3-cyano-4-(4-chlorophenyl)-5-acetylthiophene] | – | – | – | ≥ 95 | – | 54 | 77 | – | –
4 | CC[S+]([O-])c1sc(C(C)=O)cc1C#N (stereo not drawn) [(9), 2-ethylsulphinyl-3-cyano-5-acetylthiophene] | 85 | 15 | 11 | ≥ 95 | ≥ 85 | – | – | – | –
5 | COc1c(C#N)sc([S+](C)[O-])c1C#N (stereo not drawn) [(12), 2-methylsulphinyl-3,5-dicyano-4-methoxythiophene] | 93 | 0 | 0 | ≥ 95 | ≥ 85 | – | – | ≥ 75 | –
6 | CCOc1c(C#N)sc([S+]([O-])CC)c1C#N (stereo not drawn) [(14), 2-ethylsulphinyl-3,5-dicyano-4-ethoxythiophene] | 87 | 23 | 20 | ≥ 95 | ≥ 85 | – | – | ≥ 75 | –
7 | CSC(=C(C#N)c1ccc(Cl)c(Cl)c1)[S+](C)[O-] (stereo not drawn) [(15), α-cyano-β-merhylsulphinyl-β-methylthio-3,4-dichloro-styrene] | – | – | – | ≥ 95 | ≥ 85 | – | – | – | ≥ 75
8 | CSC(=C(C#N)c1ccc(Cl)cc1)[S+](C)[O-] (stereo not drawn) [(19), α-cyanoβ-methylsulphinyl-β-methylthio-4-chlorostyrene] | – | – | – | ≥ 95 | ≥ 85 | – | – | ≥ 75 | ≥ 75
9 | C[S+]([O-])c1sc(C(=O)c2ccccc2)c(Cl)c1C#N (stereo not drawn) [(31), 2-methylsulphinyl-3-cyano-4-chloro 5-benzoylthiophene] | – | – | – | ≥ 95 | ≥ 85 | – | 77 | ≥ 75 | –
10 | CCCCCC[S+]([O-])c1sc(C#N)c(Cl)c1C#N (stereo not drawn) [(34), 2-n-hexylsulphinyl-3,5-dicyano-4-chlorothiophene] | – | – | – | ≥ 95 | ≥ 85 | – | – | ≥ 75 | ≥ 75
11 | C[S+]([O-])c1sc(C#N)c(-c2ccc(Cl)cc2)c1C#N (stereo not drawn) [(35), 2-methylsulphinyl-3,5-dicyano-4-(4-chlorophenyl)thiophene] | – | – | – | ≥ 95 | ≥ 85 | – | 76 | ≥ 75 | –
12 | CCCCCCCC[S+]([O-])c1sc(C#N)c(Cl)c1C#N (stereo not drawn) [(36), 2-n-octylsulphinyl-3,5-dicyano-4-chlorothiophene] | – | – | – | ≥ 95 | ≥ 85 | – | – | ≥ 75 | ≥ 75
13 | N#Cc1cc(C#N)c(S(=O)(=O)c2ccccc2)s1 [(45), 2-phenylsulphonyl-3,5-dicyanothiophene] | – | – | – | ≥ 95 | ≥ 85 | – | – | ≥ 75 | –
14 | CC[S+]([O-])c1sc(C(=O)c2ccc(Cl)cc2)cc1C#N (stereo not drawn) [(47), 2-ethylsulphinyl-3-cyano-5-(4-chlorobenzoyl)thiophene] | – | – | – | ≥ 95 | ≥ 85 | – | 74 | ≥ 75 | –
15 | C[S+]([O-])c1sc(C(=O)c2ccccc2)cc1C#N (stereo not drawn) [(51), 2-methylsulphinyl-3-cyano-5-benzoylthiophene] | – | – | – | – | ≥ 85 | – | 71 | ≥ 75 | –
16 | CCSC(=C(C#N)c1ccc(Cl)cc1)[S+]([O-])CC (stereo not drawn) [(53), α-cyano-β-ethylsulphinyl-β-ethylthio-4-chlorostyrene] | – | – | – | – | ≥ 85 | – | 83 | ≥ 75 | –
17 | CCCC[S+]([O-])c1sc(C(C)=O)c(N)c1C#N (stereo not drawn) [(58), 2-n-butylsulphinyl-3 cyano-4-amino-5-acetylthiophene] | – | – | – | ≥ 95 | ≥ 85 | – | – | ≥ 75 | –
18 | CC[S+]([O-])c1sc(C(=O)c2ccc(Cl)cc2)c(N)c1C#N (stereo not drawn) [(66), 2 ethylsulphinyl-3-cyano-4-amino-5-(4-chlorobenzoyl)thiophene] | – | – | – | ≥ 95 | – | – | 84 | – | –
19 | CCC[S+]([O-])c1sc(C(=O)c2ccccc2)c(N)c1C#N (stereo not drawn) [(67), 2-n-propylsulphinyl-3-cyano-4-amino-5-benzoylthiophene] | – | – | – | ≥ 95 | ≥ 85 | – | – | ≥ 75 | –
20 | CC[S+]([O-])c1sc(C(=O)c2ccc(Cl)cc2)c(Cl)c1C#N (stereo not drawn) [(72), 2-ethylsulphinyl-3-cyano-4-chloro-5-(4-chlorobenzoyl)thiophene] | – | – | – | ≥ 95 | ≥ 85 | – | 70 | ≥ 75 | –
21 | COc1c(C(=O)c2ccccc2)sc([S+](C)[O-])c1C#N (stereo not drawn) [(74), 2-methylsulphinyl-3-cyano-4-methoxy-5-benzoylthiophene] | – | – | – | ≥ 95 | ≥ 85 | – | – | ≥ 75 | –
22 | N#Cc1sc([S+]([O-])Cc2ccccc2)c(C#N)c1Cl (stereo not drawn) [(78), 2-benzylsulphinyl-3,5-dicyano-4-chlorothiophene] | – | – | – | ≥ 95 | – | – | 86 | ≥ 75 | –
23 | CCCC[S+]([O-])c1sc(C#N)c(Br)c1C#N (stereo not drawn) [(79), 2-n-butylsulphinyl-3,5-dicyano-4-bromothiophene] | – | – | – | ≥ 95 | – | – | 80 | ≥ 75 | –
24 | CCCC[S+]([O-])c1sc(C#N)cc1C#N (stereo not drawn) [(80)] | – | – | – | ≥ 95 | – | – | – | ≥ 75 | ≥ 75
25 | N#Cc1sc([S+]([O-])c2ccccc2)c(C#N)c1Cl (stereo not drawn) [(82), 2 phenylsulphinyl-3,5-dicyano-4-chlorothiophene] | – | – | – | ≥ 95 | – | – | 80 | ≥ 75 | –
26 | CCCC[S+]([O-])c1sc(C(C)=O)c(Br)c1C#N (stereo not drawn) [(86), 2-n-butylsulphinyl-3-cyano-4-bromo-5-acetylthiophene] | – | – | – | ≥ 95 | ≥ 85 | – | 76 | ≥ 75 | –
27 | CCCCS(=O)(=O)c1sc(C#N)c(Br)c1C#N [(89), 2-n-butylsulphonyl 3,5-dicyano-4-bromothiophene] | – | – | – | ≥ 95 | ≥ 85 | – | – | ≥ 75 | –
28 | CC[S+]([O-])c1sc(C#N)c(Oc2ccccc2)c1C#N (stereo not drawn) [(94), 2-ethylsulphinyl-3,5-dicyano-4-phenoxythiophene] | – | – | – | ≥ 95 | ≥ 85 | – | 70 | – | –
